Experimental data: US20250346890A1, “LEUKEMIA TREATMENT” (Deutsches Krebsforschungszentrum, priority 2019, published 2025)

Columns and labels:
[1] = system: Smad1; test: Western blot of pSmad1 and tSmad1 in THP-1 cells; format: cell-based, human; conditions: THP-1 cells treated with RSPO2 siRNA plus inhibitor
Experimental: Cultured cells were rinsed with cold PBS and lysed in Triton lysis buffer ([…] Tris-Cl, pH 7.5, 1% Triton X-100, 150 mM NaCl, 1 mM EDTA, 1 mM EGTA, 1 mM β-glycerophosphate, 1 mM Na3 VO4) or RIPA buffer with complete Protease Inhibitor Cocktail (Roche 11697498001). Lysates were mixed with Laemmli buffer with β-mercaptoethanol and boiled at 95° C. for 5 min to prepare SDS-PAGE samples. Western blot images were acquired with SuperSignal West pico ECL (ThermoFisher 34580) or Clarity Western ECL (Biorad 1705061) using LAS-3000 system (FujiFilm). Quantification of blots was done using ImageJ software.
(§1) THP-1 cells were treated with 0.3, 1.0 and 3.0 μg ml^−1 goat polyclonal anti-RSPO2 antibodies (R&D systems AF3266) or goat polyclonal GFP antibodies (ABIN 100085). After 48 hours, medium was replaced including fresh antibodies—and incubated another 24 hours. Western blot analysis and FACS analyses were performed as discussed above.

[2] = system: THP-1 cells; test: Monocyte-macrophage differentiation of THP-1 cells (FACS / qRT-PCR of CD14, CD11B); format: cell-based, human
Experimental: Cultured cells were lysed in Macherey-Nagel RAI buffer containing 1% β-mercaptoethanol and total RNAs were isolated using NucleoSpin RNA isolation kit (Macherey-Nagel 740955). Reverse transcription and PCR amplification were performed. Primers used in this study are listed in Supplementary Table 1. Graphs show relative gene expressions to GAPDH. […] Statistical analyses were performed using PRISM7 software with unpaired t-test or one-way ANOVA test.
For analyzing macrophage differentiation of THP-1, cells were harvested, pelleted and resuspended in ice-cold blocking buffer (PBS supplemented with 1% BSA and 0.1% NaN3). Cells were treated with Fc Receptor Binding Inhibitor as recommended by the manufacturer (eBioscience 14916173) and stained directly with FITC/APC-conjugated antibodies diluted in blocking buffer or with non-conjugated primary antibodies followed by fluorochrome-labeled secondary antibodies. Isotype-matched antibodies were used as controls. Dead cells were excluded by counterstaining with propidium iodide. For analyzing apoptosis of THP-1, cells were fixed in 4% PFA, permeabilized by MeOH and blocked with PBS supplemented with 1% BSA and 0.1% Tween-20. Cells were stained with anti-active Caspase-3 antibody and fluorochrome-labeled secondary antibody. FACS Samples were analyzed with FACSCalibur or FACSCanto (BD Biosciences). 10,000 events per samples were acquired, and results were processed with Cell Quest or FACSDiva software (BD Biosciences). For BMP4 stimulation, cells were treated with 5 and 25 ng ml^−1 recombinant human BMP4 protein (R&D systems 314-BP). 100, 300 and 1000 nM LDN […] (Tocris 6053) were used for rescue assay. For the THP-1 cell number quantification and differentiation validation in vivo, bone marrow cells were harvested from tibias of NSG mice and red blood cells were removed by ACK Lysing Buffer (Gibco A1049201). Cells were stained and analyzed as above. Here, 50,000 PI-negative events per samples were acquired.
as §1
(§2) The sequences of shRSPO2 and shControl (Table 1) were synthesized, inserted into the transfer plasmid Tet-pLKO-puro (Addgene 21915) and validated by sequencing. Lentivirus was produced with the 3rd generation lentiviral system according to the protocol available at the Trono lab as described (www.epfl.ch/labs/tronolab/). THP-1 cells were infected with lentivirus with 8 μg ml^−1 Polybrene (Sigma TR-1003) and selected with 0.5 μg ml^−1 puromycin (Calbiochem 540411). Single cell clones were obtained by limiting dilutions. The shRNA expression of clones was validated by monitoring RSPO2 expression after doxycycline treatment (1.0 μg ml^−1) for 3 days.

[3] = system: BMP4 signaling; test: BRE reporter assay in HEPG2 cells stimulated by BMP4; format: cell-based, human; conditions: HEPG2 cells
Experimental: BRE luciferase assays were executed using 300,000 ml^−1 of HEPG2 cells in 24-well plates. PGL3-BRE-Luciferase (500 ng ml^−1) and pRL-TK-Renilla plasmids (50 ng ml^−1) were transfected using Lipofectamine 3000. After 24 hours, cells were serum starved 2 hours and stimulated 14-16 hours with 80 ng ml^−1 recombinant human BMP4 protein (R&D systems 314-BP) along with AP tagged RSPO1-4 or flag tagged RSPO1-3 conditioned medium. Luciferase activity was measured with the Dual luciferase reporter assay system (Promega E1960). Firefly luminescence (BRE) was normalized to Renilla. TOPFlash luciferase assays were carried out as previously described (Berger et al. (2017), EMBO Rep 18, 712-725, doi: 10.15252/embr.201643585). […] Statistical analyses were made with the PRISM7 software using unpaired t-test or one-way ANOVA test. Not significant (ns) P>0.05, *P<0.05, **P<0.01, ***P<0.001, and ****P<0.0001.

[4] = system: THP-1 cells; test: THP-1 cell growth and colony formation assay; format: cell-based, human; conditions: TetOn-shRSPO2 clones, Dox treatment
Experimental: as §2
1,000 cells per well of Dox-inducible THP-1 clones were seeded into 24-well plates in RPMI+10% FBS, 1% penicillin-streptomycin, 1 mM sodium pyruvate, 2 mM L-glutamine and 0.5% methylcellulose, with or without Doxycycline (1 μg ml^−1). After 8 days incubation, microscopic dark field images were taken using LEICA DMIL microscope/Canon DS126311 camera.

[5] = system: THP-1 cells; test: THP-1 AML xenograft in NSG mice; format: in vivo, mouse
Experimental: For analyzing macrophage differentiation of THP-1, cells were harvested, pelleted and resuspended in ice-cold blocking buffer (PBS supplemented with 1% BSA and 0.1% NaN3). […] Isotype-matched antibodies were used as controls. Dead cells were excluded by counterstaining with propidium iodide. For analyzing apoptosis of THP-1, cells were fixed in 4% PFA, permeabilized by MeOH and blocked with PBS supplemented with 1% BSA and 0.1% Tween-20. […] FACS Samples were analyzed with FACSCalibur or FACSCanto (BD Biosciences). 10,000 events per samples were acquired, and results were processed with Cell Quest or FACSDiva software (BD Biosciences). […] For the THP-1 cell number quantification and differentiation validation in vivo, bone marrow cells were harvested from tibias of NSG mice and red blood cells were removed by ACK Lysing Buffer (Gibco A1049201). Cells were stained and analyzed as above. Here, 50,000 PI-negative events per samples were acquired.
NOD SCID gamma (NSG) mice were recruited from the Center for Preclinical Research, DKFZ, Heidelberg. […] Randomized mouse cohorts (n=6-7 mice/group) were treated with Dox or vehicle throughout the study. Treatment started 3 days prior to cell transplantation via drinking water consisting 1 mg/ml Dox and 5% saccharose, or 5% saccharose only. […] 500,000 cells in 100 μl PBS were injected intravenously into the lateral tail vein of 7-8-week-old female mice. Besides regular health checks, mouse body weight was taken twice per week throughout the experiment. Heparinized blood was collected from the tail vein at days 9 and 22 after transplantation. Terminal blood collection was performed under isoflurane anesthesia followed by cervical dislocation. Necropsies were taken as indicated or when mice reached a stop criterion of the German Society of Laboratory Animal Sciences (GV-SOLAS), until here defined as survival. All mouse experiments were in accordance with the approved guidelines of the local Governmental Committee for Animal Experimentation (RP Karlsruhe, Germany, license G140/19).
For each reaction, 25 ng genomic DNA was used. A standard curve was generated with genomic DNA extracted from NSG mice blood containing known numbers of THP-1 cells and used for converting qPCR fluorescent signals to actual cell numbers. Normal NSG mice blood and nuclease free water were used as negative controls.

[6] = system: Xenopus embryos; test: Crispr-Cas9-mediated Xenopus rspo2 knockout embryos; format: in vivo, Xenopus tropicalis
[7] = biological target: T1, ALK3RD (Homo sapiens, UniProt P36894, Q233D); test: BRE reporter assay in HEPG2 cells with constitutively active ALK3; format: cell-based; conditions: RSPO treatment
T1 construct: expressed in transfected cells; host or cells: HEPG2
Excerpt: Alkaline phosphatase (AP) fusions with RSPOs (human RSPO1^ΔC-AP-pCDNA3, RSPO2^ΔC-AP-pCDNA3, RSPO2^ΔC-AP-pCS2+, RSPO3^ΔC-AP-pCDNA3, murine RSPO4^ΔC-pCDNA3) were generated by replacing the C-terminal domain (ΔC) by AP and used to produce conditioned media. Human RSPO2 wild-type (RSPO2), Furin1 and Furin2 deletion mutants (RSPO2^ΔFU), and TSP1 domain deletion mutant (RSPO2^ΔTSP) are ORFs lacking the C-terminal domain, C-terminally tagged with a Flag-tag and subcloned into pCS2+. R1-TSP^R2, R1-TSP^R2-AP and R1-TSP^R2-Flag plasmids were generated by fusion PCR and cloned in pCS2+. Conditioned media from all RSPO constructs were adjusted to equal concentration by western blot and AP activity measurement, and further validated by WNT reporter assay using HEK293T cells. The extracellular domain of ALK3 (ALK3^ECD) was subcloned in AP-pCS2+ for generating conditioned medium and used in in vitro binding assays. Constitutively active forms of ALK2,3,6 (ALK^QD) were generated by Gln-Asp mutations as described in Fujii et al. (1999), Mol Biol Cell 10, 3801-3813, doi: 10.1091/mbc.10.11.3801. HA-tagged ALK3 was a gift from Dr. D. Koinuma (Goto et al. (2007), J Biol Chem 282, 20603-20611, doi: 10.1074/jbc.M702100200). For Xenopus mRNA microinjection, Xenopus laevis BMP4-pCS2+, myc-tagged RSPO2^ΔC-myc-pCS2+, RSPO2^ΔFU-myc-pCS2+ and RSPO2^ΔTSP-myc-pCS2+ plasmids, DNALK3-pCS2+, membrane-RFP, EYFP-tagged human ALK3-pCS2+ were used for in vitro transcription. Human ZNRF3 and ZNRF3^ΔRING constructs were gifts from Dr. F. Cong (Novartis; Hao et al. (2012), Nature 485, 195-200, doi: 10.1038/nature11019), and ORFs were subcloned in flag-pCS2+ for in vitro transcription.
BRE luciferase assays were executed using 300,000 ml^−1 of HEPG2 cells in 24-well plates. PGL3-BRE-Luciferase (500 ng ml^−1) and pRL-TK-Renilla plasmids (50 ng ml^−1) were transfected using Lipofectamine 3000. […] Luciferase activity was measured with the Dual luciferase reporter assay system (Promega E1960). Firefly luminescence (BRE) was normalized to Renilla. […]

T1 sequence (P36894 24-532 Q233D): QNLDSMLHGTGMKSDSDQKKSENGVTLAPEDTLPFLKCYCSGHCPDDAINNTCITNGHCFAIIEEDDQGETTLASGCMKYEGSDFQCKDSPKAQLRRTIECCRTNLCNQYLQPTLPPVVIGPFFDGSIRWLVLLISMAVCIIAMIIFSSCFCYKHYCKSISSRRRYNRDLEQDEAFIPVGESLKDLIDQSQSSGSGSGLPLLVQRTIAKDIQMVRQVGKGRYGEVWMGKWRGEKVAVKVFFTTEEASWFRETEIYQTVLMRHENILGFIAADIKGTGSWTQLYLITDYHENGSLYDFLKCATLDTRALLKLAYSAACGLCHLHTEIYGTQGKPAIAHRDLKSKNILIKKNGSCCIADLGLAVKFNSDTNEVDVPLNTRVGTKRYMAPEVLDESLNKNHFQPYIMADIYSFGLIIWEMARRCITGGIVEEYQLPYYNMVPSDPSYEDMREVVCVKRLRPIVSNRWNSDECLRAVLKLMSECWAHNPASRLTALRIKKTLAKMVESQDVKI

Molecule: c1ccc2c(-c3cnn4cc(-c5ccc(N6CCNCC6)cc5)cnc34)ccnc2c1 [LDN 193189]
- Smad1-phosphorylation increased by RSPO2 knockdown [1]: reverted increased Smad1-phosphorylation
- monocyte-macrophage differentiation induced by siRSPO2 ([2]; THP-1 cells, siRSPO2 plus inhibitor): impaired monocyte-macrophage differentiation

Molecule: CN(C)c1cccc2c(S(=O)(=O)NCCCCCN)cccc12 [monodansylcadaverin, reference compound]
- effect on inhibition of BMP signaling by RSPO2 ([3]; BMP4+RSPO2): eliminated inhibition of BMP signaling by RSPO2

Molecule: shRSPO2: Dox-inducible shRNA against RSPO2, SEQ ID NO:10, expressed in THP-1 clones (GACAATGGGTGTAGCCGATCTCGAGATCGGCTACACCCATTGTC)
- BMP signaling and monocyte-macrophage differentiation ([2]; THP-1 TetOn-shRSPO2 clones, Dox-administration): induced BMP signaling and robust monocyte-macrophage differentiation
- THP-1 cell growth [4]: reduced THP-1 cell growth
- colony formation [4]: reduced
- prolongation of disease-free survival ([5]; NSG mice injected with TetOn-shRSPO2 THP-1 cell line #1, Dox induction, still alive at reporting time): at least 2.3 fold
- survival ([5]; NSG mice injected with TetOn-shRSPO2 THP-1 cell line #2, Dox induction): survived almost twice as long
- tumor burden ([5]; NSG mice, TetOn-shRSPO2 THP-1 cells, Dox induction): reduced tumor burden
- macrophage differentiation in bone marrow ([5]; NSG mice, both TetOn-shRSPO2 cell lines, Dox induction): enhanced macrophage differentiation

Molecule: gRNA: previously established guide RNA for Crispr-Cas9 rspo2 knockout, TGACTCCATAGTATCCAGGA (SEQ ID NO:11) (listed as DNA, chemistry not given here)
- embryo phenotype [6]: mildly ventralized embryos
- BMP target gene expression ([6]; sizzled in situ hybridization): increased BMP target gene expression

B1: RSPO1: secreted R-spondin protein; conditioned medium or recombinant human RSPO1 (Peprotech 120-38) (protein, UniProt Q2MKA7 21-263, looked up)
R-spondin-1: SRGIKGKRQRRISAEGSQACAKGCELCSEVNGCLKCSPKLFILLERNDIRQVGVCLPSCPPGYFDARNPDMNKCIKCKIEHCEACFSHNFCTKCKEGLYLHKGRCYPACPEGSSAANGTMECSSPAQCEMSEWSPWGPCSKKQQLCGFRRGSEERTRRVLHAPVGDHAACSDTKETRRCTVRRVPCPEGQKRRKGGQGRRENANRNLARKESKEAGAGSRRRKGQQQQQQQGTVGPLTSAGPA
- BMP signaling induced by constitutively active ALK3 [7]: had no effect

B2: RSPO3: human R-spondin 3 protein (SEQ ID NO:2); conditioned medium or recombinant (Peprotech 120-44) (protein, listed as Homo sapiens)
chain: MHLRLISWLFIILNFMEYIGSQNASRGRRQRRMHPNVSQGCQGGCATCSDYNGCLSCKPRLFFALERIGMKQIGVCLSSCPSGYYGTRYPDINKCTKCKADCDTCFNKNFCTKCKSGFYLHLGKCLDNCPEGLEANNHTMECVSIVHCEVSEWNPWSPCTKKGKTCGFKRGTETRVREIIQHPSAKGNLCPPTNETRKCTVQRKKCQKGERGKKGRERKRKKPNKGESKEAIPDSKSLESSKEIPEQRENKQQQKKRKVQDKQKSVSVSTVH
- BMP4 signaling ([3]; BMP4 stimulation, treatment with RSPO protein): decreased BMP4 signaling
- BMP signaling induced by constitutively active ALK3 [7]: specifically inhibited
